# From patent US12678480B2, “Polypeptide applied to inhibition of intracellular lipid accumulation and synthesis method thereof” (NATIONAL CHENG KUNG UNIVERSITY, priority 2021, dated 2026)
# Ends that are not written are not given here.
# Assays:
# [1] = test system: human hepatocarcinoma cells (Huh7); assay: fluorescence staining of lipid droplets in hepatocytes treated with the polypeptide; type: cell-based; details: Huh7, 400 μM oleic acid, peptide 10 μM, 20 μM; FIG. 4
# [2] = test system: human hepatocarcinoma cells (Huh7); details: Huh7, 400 μM oleic acid, peptide 10 μM, 20 μM; FIGS. 3A-3B
substance,measurement,setting,value
MEPGGARLRLQRTEGLGGERERQPCGDGNTETHRAPDLVQWYGRKKRRQRRRK-OH [polypeptide],generation of intracellular lipid droplets (LD),[1],can inhibit
same,level of total cholesterol (TC) in hepatocytes,[2],can reduce
same,level of triglyceride (TG) in hepatocytes,[2],can reduce
